Measured values taken from ChEMBL document CHEMBL4507266, “Data for DCP probe BAY-784” (2021).

Columns and labels:
[1] = test system: Tyrosine-protein kinase ABL1 (Homo sapiens), P00519 [F317I]; settings: Compound concentration 1000.0 nM
[2] = molecular target: Activin receptor type-1-like (Homo sapiens) (UniProt P37023); settings: Compound concentration 1000.0 nM
[3] = molecular target: Death-associated protein kinase 1 (Homo sapiens) (UniProt P53355); settings: Compound concentration 1000.0 nM
[4] = molecular target: Mitogen-activated protein kinase kinase kinase 12 (Homo sapiens) (UniProt Q12852); settings: Compound concentration 1000.0 nM
[5] = molecular target: Eukaryotic translation initiation factor 2-alpha kinase 1 (Homo sapiens) (UniProt Q9BQI3); settings: Compound concentration 1000.0 nM
[6] = test system: Receptor-type tyrosine-protein kinase FLT3 (Homo sapiens), P36888 [R834Q]; settings: Compound concentration 1000.0 nM
[7] = molecular target: Glycogen synthase kinase-3 beta (Homo sapiens) (UniProt P49841); settings: Compound concentration 1000.0 nM
[8] = molecular target: Tyrosine-protein kinase JAK3 (Homo sapiens) (UniProt P52333); settings: Compound concentration 1000.0 nM
[9] = test system: Mast/stem cell growth factor receptor Kit (Homo sapiens), P10721 [D816H]; settings: Compound concentration 1000.0 nM
Chain of Mast/stem cell growth factor receptor Kit (Homo sapiens), P10721 [D816H] (P10721 whole entry D816H): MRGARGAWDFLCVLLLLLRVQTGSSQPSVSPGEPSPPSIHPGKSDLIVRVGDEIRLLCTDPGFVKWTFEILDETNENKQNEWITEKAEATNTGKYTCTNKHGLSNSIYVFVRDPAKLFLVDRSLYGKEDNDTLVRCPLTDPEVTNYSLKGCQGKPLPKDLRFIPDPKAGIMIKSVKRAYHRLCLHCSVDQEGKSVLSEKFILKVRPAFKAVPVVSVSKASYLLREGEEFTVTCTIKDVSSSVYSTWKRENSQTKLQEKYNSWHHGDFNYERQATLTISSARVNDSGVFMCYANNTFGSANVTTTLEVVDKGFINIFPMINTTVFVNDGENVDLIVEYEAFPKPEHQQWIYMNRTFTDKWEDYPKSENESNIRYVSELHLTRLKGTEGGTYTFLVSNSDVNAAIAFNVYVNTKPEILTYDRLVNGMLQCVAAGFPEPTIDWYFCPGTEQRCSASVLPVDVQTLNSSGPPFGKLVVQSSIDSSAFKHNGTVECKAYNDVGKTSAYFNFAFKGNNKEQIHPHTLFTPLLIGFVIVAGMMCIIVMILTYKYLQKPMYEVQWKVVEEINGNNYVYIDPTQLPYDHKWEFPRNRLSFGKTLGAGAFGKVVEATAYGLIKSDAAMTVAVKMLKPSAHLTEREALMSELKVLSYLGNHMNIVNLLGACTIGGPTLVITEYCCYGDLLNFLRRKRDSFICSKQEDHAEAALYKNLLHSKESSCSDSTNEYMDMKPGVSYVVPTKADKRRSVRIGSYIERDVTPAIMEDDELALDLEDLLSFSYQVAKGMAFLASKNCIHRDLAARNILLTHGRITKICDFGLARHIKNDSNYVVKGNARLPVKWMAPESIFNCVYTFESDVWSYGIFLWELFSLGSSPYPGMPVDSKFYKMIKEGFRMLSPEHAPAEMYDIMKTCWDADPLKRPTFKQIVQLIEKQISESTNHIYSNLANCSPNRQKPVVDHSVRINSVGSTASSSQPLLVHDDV

[10] = molecular target: Serine/threonine-protein kinase STK11 (Homo sapiens) (UniProt Q15831); settings: Compound concentration 1000.0 nM
Chain of Serine/threonine-protein kinase STK11 (Homo sapiens) (Q15831 whole entry): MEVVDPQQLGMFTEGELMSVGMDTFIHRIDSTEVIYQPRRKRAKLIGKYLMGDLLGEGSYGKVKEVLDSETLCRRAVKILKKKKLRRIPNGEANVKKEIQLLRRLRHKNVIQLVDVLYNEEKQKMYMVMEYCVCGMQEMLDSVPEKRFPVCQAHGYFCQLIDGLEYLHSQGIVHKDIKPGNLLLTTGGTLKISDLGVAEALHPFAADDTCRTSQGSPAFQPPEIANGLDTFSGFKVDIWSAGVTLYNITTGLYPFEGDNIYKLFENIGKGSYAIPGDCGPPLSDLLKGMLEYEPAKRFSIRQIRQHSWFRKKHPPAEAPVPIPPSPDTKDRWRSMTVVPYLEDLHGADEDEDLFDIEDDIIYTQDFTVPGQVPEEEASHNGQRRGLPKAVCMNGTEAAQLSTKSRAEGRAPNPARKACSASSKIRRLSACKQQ

[11] = molecular target: Tyrosine-protein kinase Lyn (Homo sapiens) (UniProt P07948); settings: Compound concentration 1000.0 nM
[12] = molecular target: Myosin light chain kinase (Homo sapiens) (UniProt Q32MK0); settings: Compound concentration 1000.0 nM
Chain of Myosin light chain kinase (Homo sapiens) (Q32MK0 whole entry): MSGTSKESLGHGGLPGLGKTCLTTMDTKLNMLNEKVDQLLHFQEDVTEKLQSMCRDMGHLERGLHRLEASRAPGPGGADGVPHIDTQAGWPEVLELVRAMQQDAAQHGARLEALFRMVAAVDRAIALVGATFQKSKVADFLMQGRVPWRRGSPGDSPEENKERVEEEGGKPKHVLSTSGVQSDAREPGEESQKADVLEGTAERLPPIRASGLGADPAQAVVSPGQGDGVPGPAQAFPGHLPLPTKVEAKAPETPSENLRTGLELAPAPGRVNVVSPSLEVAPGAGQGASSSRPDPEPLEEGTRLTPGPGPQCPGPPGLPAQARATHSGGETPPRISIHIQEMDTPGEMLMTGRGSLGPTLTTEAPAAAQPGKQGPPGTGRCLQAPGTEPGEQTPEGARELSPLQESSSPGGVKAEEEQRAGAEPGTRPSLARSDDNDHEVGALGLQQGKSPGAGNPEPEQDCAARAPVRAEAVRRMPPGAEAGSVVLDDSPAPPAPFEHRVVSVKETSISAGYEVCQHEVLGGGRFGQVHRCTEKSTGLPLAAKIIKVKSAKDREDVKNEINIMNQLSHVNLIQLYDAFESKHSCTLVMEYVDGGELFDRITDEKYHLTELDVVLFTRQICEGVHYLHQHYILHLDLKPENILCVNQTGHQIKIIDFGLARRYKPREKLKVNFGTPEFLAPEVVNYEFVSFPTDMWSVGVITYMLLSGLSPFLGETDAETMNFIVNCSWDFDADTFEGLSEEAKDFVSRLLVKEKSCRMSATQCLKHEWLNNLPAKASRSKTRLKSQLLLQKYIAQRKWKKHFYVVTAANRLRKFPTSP

[13] = molecular target: Serine/threonine-protein kinase MRCK beta (Homo sapiens) (UniProt Q9Y5S2); settings: Compound concentration 1000.0 nM
[14] = molecular target: Macrophage-stimulating protein receptor (Homo sapiens) (UniProt Q04912); settings: Compound concentration 1000.0 nM
[15] = molecular target: Serine/threonine-protein kinase Nek6 (Homo sapiens) (UniProt Q9HC98); settings: Compound concentration 1000.0 nM
[16] = molecular target: Cyclin-dependent kinase 15 (Homo sapiens) (UniProt Q96Q40); settings: Compound concentration 1000.0 nM
[17] = test system: Phosphatidylinositol 4,5-bisphosphate 3-kinase catalytic subunit alpha isoform (Homo sapiens), P42336 [M1043I]; settings: Compound concentration 1000.0 nM
Chain of Phosphatidylinositol 4,5-bisphosphate 3-kinase catalytic subunit alpha isoform (Homo sapiens), P42336 [M1043I] (P42336 whole entry M1043I, canonical isoform): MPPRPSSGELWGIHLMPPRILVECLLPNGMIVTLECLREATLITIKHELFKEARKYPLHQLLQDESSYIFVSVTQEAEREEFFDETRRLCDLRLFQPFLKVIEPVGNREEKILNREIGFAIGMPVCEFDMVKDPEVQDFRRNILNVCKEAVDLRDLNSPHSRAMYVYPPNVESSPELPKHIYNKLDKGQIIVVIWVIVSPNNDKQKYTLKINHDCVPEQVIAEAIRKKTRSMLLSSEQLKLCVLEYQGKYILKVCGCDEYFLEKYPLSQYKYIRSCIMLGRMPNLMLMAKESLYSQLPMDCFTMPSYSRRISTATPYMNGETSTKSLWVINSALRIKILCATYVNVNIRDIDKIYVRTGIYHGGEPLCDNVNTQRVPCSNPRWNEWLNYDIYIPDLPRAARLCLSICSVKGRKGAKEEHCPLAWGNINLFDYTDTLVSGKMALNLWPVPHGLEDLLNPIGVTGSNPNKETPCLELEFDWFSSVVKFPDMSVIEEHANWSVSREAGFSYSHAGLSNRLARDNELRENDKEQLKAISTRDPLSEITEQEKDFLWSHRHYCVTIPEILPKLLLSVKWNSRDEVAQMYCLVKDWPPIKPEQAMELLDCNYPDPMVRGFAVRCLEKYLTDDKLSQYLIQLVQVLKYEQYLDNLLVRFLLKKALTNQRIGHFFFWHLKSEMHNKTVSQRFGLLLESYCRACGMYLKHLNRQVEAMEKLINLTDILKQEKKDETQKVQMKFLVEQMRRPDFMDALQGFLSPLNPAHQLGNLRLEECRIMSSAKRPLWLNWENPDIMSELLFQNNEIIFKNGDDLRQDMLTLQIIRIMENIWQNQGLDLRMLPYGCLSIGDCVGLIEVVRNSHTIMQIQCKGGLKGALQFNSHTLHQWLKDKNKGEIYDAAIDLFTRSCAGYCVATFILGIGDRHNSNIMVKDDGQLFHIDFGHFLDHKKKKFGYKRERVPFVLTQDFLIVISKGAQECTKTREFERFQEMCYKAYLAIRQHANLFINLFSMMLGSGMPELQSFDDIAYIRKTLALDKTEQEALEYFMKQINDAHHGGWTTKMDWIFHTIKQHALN

[18] = molecular target: Phosphatidylinositol 4-phosphate 5-kinase type-1 gamma (Homo sapiens) (UniProt O60331); settings: Compound concentration 1000.0 nM
Chain of Phosphatidylinositol 4-phosphate 5-kinase type-1 gamma (Homo sapiens) (O60331 whole entry): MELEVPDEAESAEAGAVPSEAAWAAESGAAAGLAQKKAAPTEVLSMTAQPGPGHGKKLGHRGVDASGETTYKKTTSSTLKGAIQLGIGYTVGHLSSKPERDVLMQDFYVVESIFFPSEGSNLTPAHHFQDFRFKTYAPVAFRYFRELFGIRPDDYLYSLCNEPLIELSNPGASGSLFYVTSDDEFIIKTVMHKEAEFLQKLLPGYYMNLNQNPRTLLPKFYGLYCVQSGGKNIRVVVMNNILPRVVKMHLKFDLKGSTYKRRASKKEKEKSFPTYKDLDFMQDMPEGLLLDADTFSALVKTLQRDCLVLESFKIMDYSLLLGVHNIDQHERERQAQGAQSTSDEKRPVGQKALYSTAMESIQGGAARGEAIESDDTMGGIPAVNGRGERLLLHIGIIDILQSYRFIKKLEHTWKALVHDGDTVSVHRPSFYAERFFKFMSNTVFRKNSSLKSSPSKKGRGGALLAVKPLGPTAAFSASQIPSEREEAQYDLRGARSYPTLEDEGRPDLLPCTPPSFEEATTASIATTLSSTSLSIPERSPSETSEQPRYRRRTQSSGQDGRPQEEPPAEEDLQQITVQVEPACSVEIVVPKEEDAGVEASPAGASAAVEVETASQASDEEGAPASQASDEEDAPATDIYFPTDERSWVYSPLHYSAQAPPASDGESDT

[19] = molecular target: Serine/threonine-protein kinase N2 (Homo sapiens) (UniProt Q16513); settings: Compound concentration 1000.0 nM
[20] = molecular target: Serine/threonine-protein kinase PLK4 (Homo sapiens) (UniProt O00444); settings: Compound concentration 1000.0 nM
[21] = molecular target: Serine/threonine-protein kinase D3 (Homo sapiens) (UniProt O94806); settings: Compound concentration 1000.0 nM
[22] = molecular target: Proto-oncogene tyrosine-protein kinase ROS (Homo sapiens) (UniProt P08922); settings: Compound concentration 1000.0 nM
[23] = molecular target: Ribosomal protein S6 kinase alpha-4 (Homo sapiens) (UniProt O75676); settings: Compound concentration 1000.0 nM
[24] = molecular target: Serine/threonine-protein kinase 33 (Homo sapiens) (UniProt Q9BYT3); settings: Compound concentration 1000.0 nM
[25] = molecular target: Mitogen-activated protein kinase kinase kinase 7 (Homo sapiens) (UniProt O43318); settings: Compound concentration 1000.0 nM
[26] = molecular target: Vascular endothelial growth factor receptor 2 (Homo sapiens) (UniProt P35968); settings: Compound concentration 1000.0 nM
[27] = molecular target: Serine/threonine-protein kinase WNK3 (Homo sapiens) (UniProt Q9BYP7); settings: Compound concentration 1000.0 nM
[28] = molecular target: 5-hydroxytryptamine receptor 7 (Homo sapiens) (UniProt P34969); settings: Compound concentration 10.0 uM
Chain of 5-hydroxytryptamine receptor 7 (Homo sapiens) (P34969 whole entry): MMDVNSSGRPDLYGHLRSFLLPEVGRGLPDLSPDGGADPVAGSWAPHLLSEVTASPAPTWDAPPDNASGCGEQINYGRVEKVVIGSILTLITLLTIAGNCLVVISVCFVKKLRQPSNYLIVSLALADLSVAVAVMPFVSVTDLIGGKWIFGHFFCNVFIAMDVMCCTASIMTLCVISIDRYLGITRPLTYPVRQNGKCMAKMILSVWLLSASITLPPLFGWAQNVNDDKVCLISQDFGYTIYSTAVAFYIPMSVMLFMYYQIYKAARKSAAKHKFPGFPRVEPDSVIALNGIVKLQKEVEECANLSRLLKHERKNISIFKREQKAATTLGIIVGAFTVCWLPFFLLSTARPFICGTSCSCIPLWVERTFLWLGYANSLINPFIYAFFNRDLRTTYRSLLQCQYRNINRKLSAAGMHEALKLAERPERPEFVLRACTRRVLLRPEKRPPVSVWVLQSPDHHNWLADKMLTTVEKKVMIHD

[29] = molecular target: Sodium-dependent noradrenaline transporter (Homo sapiens) (UniProt P23975); settings: Compound concentration 10.0 uM
[30] = molecular target: T1, Alpha-2C adrenergic receptor (Homo sapiens) (UniProt P18825); settings: Compound concentration 10.0 uM
T1 sequence (whole entry): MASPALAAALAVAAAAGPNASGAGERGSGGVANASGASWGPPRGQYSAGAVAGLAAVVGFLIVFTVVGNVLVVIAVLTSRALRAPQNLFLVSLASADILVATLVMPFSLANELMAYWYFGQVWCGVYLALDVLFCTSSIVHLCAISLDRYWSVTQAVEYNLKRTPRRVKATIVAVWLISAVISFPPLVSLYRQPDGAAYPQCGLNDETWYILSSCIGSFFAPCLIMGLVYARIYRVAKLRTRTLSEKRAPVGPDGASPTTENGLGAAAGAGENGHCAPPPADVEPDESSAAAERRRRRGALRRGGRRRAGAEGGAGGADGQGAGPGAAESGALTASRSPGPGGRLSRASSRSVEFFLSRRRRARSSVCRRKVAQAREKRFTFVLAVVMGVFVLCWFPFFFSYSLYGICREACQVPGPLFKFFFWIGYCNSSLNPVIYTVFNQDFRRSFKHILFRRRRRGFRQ

[31] = molecular target: T2, Muscarinic acetylcholine receptor M2 (Homo sapiens) (UniProt P08172); settings: Compound concentration 10.0 uM
T2 sequence (whole entry): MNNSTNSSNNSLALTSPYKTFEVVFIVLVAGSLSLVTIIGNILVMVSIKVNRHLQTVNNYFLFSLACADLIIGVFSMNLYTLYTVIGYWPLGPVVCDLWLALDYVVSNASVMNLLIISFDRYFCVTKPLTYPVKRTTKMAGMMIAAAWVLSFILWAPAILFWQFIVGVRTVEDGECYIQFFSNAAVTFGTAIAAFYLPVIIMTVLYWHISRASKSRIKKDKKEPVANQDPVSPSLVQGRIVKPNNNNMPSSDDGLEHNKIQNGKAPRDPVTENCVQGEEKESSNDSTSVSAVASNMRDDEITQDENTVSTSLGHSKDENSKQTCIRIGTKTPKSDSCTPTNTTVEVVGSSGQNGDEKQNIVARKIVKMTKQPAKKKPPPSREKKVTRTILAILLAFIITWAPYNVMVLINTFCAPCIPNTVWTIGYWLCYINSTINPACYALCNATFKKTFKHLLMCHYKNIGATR

Chain of Activin receptor type-1-like (Homo sapiens) (P37023 whole entry): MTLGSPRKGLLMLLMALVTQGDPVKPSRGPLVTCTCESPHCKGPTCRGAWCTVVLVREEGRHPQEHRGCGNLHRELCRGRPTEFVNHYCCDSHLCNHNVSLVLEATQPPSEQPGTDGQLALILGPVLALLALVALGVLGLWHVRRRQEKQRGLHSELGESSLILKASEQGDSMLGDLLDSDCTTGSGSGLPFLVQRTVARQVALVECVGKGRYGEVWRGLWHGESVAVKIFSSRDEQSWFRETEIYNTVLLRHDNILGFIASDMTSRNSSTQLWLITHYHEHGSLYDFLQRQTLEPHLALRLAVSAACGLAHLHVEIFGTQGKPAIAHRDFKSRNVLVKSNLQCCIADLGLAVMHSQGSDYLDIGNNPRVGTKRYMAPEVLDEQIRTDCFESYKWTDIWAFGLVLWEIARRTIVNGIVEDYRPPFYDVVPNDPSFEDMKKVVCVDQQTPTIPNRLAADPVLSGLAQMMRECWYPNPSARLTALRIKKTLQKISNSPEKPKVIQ

O=C(NCc1ncc(C(F)(F)F)cc1Cl)c1ccc2c(c1)C1(CCS(=O)(=O)CC1)[C@H](C1CC1)N2S(=O)(=O)c1ccc(F)cc1 [BAY-784]
inactive: residual activity [1] 83% | residual activity [2] 98% | residual activity [3] 100% | residual activity [4] 82% | residual activity [5] 86% | residual activity [6] 90% | residual activity [7] 87% | residual activity [8] 79% | residual activity [9] 79% | residual activity [10] 100% | residual activity [11] 100% | residual activity [12] 79% | residual activity [13] 100% | residual activity [14] 99% | residual activity [15] 100% | residual activity [16] 100% | residual activity [17] 93% | residual activity [18] 100% | residual activity [19] 70% | residual activity [20] 92% | residual activity [21] 100% | residual activity [22] 100% | residual activity [23] 91% | residual activity [24] 100% | residual activity [25] 80% | residual activity [26] 83% | residual activity [27] 86% | inhibition [28] -8.16% | inhibition [29] 1.03% | inhibition [30] 12.8% | inhibition [31] 8.38%

O=C(NCc1ncc(C(F)(F)F)cc1Cl)c1ccc2c(c1)C1(CCS(=O)(=O)CC1)[C@@H](C1CC1)N2S(=O)(=O)c1ccc(F)cc1 [BAY-786]
inactive: residual activity [1] 71% | residual activity [2] 72% | residual activity [3] 100% | residual activity [4] 87% | residual activity [5] 94% | residual activity [6] 84% | residual activity [7] 90% | residual activity [8] 93% | residual activity [9] 64% | residual activity [10] 100% | residual activity [11] 100% | residual activity [12] 76% | residual activity [13] 100% | residual activity [14] 100% | residual activity [15] 95% | residual activity [16] 69% | residual activity [17] 56% | residual activity [18] 94% | residual activity [19] 68% | residual activity [20] 92% | residual activity [21] 100% | residual activity [22] 100% | residual activity [23] 84% | residual activity [24] 86% | residual activity [25] 63% | residual activity [26] 80% | residual activity [27] 70% | inhibition [28] -4.83% | inhibition [29] 3.76% | inhibition [30] 15.7% | inhibition [31] 12.5%
